Columns and labels:
[1] = system: Acetic Acid-induced Writhing Model; assay: Analgesia test in acetic acid-induced writhing model (oral gavage); type: in vivo; conditions: CD-1 mice, n=5, mean ± standard error, single oral gavage; for Number of Writhing 5-15 min: 5-15 min after injection of 0.6% glacial acetic acid, acetic acid 2h after administration (Fentanyl intravenous, 10 min after). Dose mg/kg: Fentanyl 0.008, A10-0 18.0, A3 30.0, A10 30.1, A14 30.6, A15 20.6, A17 18.7, A18 32.3, A21 31.8, A22 22.3, A7 40.7, A19 18.4, A23 28.4, A44 32.0, A24 25.5, A53 26.9, A40 34.5, A55 40.5, A57 26.7, A4 30; for Number of Writhing 15-30 min: 15-30 min after injection of 0.6% glacial acetic acid, acetic acid 2h after administration (Fentanyl intravenous, 10 min after). Dose mg/kg: Fentanyl 0.008, A10-0 18.0, A3 30.0, A10 30.1, A14 30.6, A15 20.6, A17 18.7, A18 32.3, A21 31.8, A22 22.3, A7 40.7, A19 18.4, A23 28.4, A44 32.0, A24 25.5, A53 26.9, A40 34.5, A55 40.5, A57 26.7, A4 3; for Time to start writhing: 0.6% glacial acetic acid 2h after administration (Fentanyl intravenous, 10 min after). Dose mg/kg: Fentanyl 0.008, A10-0 18.0, A3 30.0, A10 30.1, A14 30.6, A15 20.6, A17 18.7, A18 32.3, A21 31.8, A22 22.3, A7 40.7, A19 18.4, A23 28.4, A44 32.0, A24 25.5, A53 26.9, A40 34.5, A55 40.5, A57 26.7, A4 30.0; for Number of Writhing Total: total of 5-15 min and 15-30 min after injection of 0.6% glacial acetic acid, acetic acid 2h after administration (Fentanyl intravenous, 10 min after). Dose mg/kg: Fentanyl 0.008, A10-0 18.0, A3 30.0, A10 30.1, A14 30.6, A15 20.6, A17 18.7, A18 32.3, A21 31.8, A22 22.3, A7 40.7, A19 18.4, A23 28.4, A44 32.0, A24 25.5, A53 26.9, A40 34.5, A5
[2] = system: inflammatory pain model induced by complete Freund's adjuvant in mice; assay: Mechanical pain test of inflammatory pain model induced by complete Freund's adjuvant in mice; type: in vivo, mice (C57BL/6J); conditions: C57BL/6J male mice, n=4; tested 0.5h, 2h, 8h, 24h after first administration; Morphine 2 mg/kg subcutaneous; A10-0 5 mg/kg and A3 8.4 mg/kg oral gavage at intervals of 8h

Compound	Number of Writhing 5-15 min [1]	Number of Writhing 15-30 min [1]	Time to start writhing [1]	Number of Writhing Total [1]	analgesic effect on the inflammatory pain model in mice (mechanical pain threshold, Fig. 1) [2]	effect of reducing the sole-swelling degree in mice (plantar thickness, Fig. 2) [2]
COc1cc2c(cc1OC)[C@@H]1Cc3ccc(OC(=O)[C@@H](C)c4ccc(-c5ccccc5)c(F)c4)c(OC)c3CN1CC2 [Compound A4]	14±14	12±14	154 ± 151 s	26±27	–	–
COc1cc2c(cc1OC)[C@@H]1Cc3ccc(O)c(OC)c3CN1CC2 [Compound A10-0, Corydalmine]	4±3	5±3	545 ± 221 s	9±2	did not have a significant analgesic effect on the inflammatory pain model in mice	had an effect of reducing the sole-welling degree in mice, but the effect was maintained for a short time
CN1CC[C@]23c4c5ccc(O)c4O[C@H]2[C@@H](O)C=C[C@H]3[C@H]1C5 [Morphine]	–	–	–	–	a good analgesic effect on the inflammatory pain mode in mice, but the effect cannot be maintained for a long term	did not have an effect of reducing the sole-swelling degree in mice

— EP4606800A1, “COMPOUND BASED ON ORYDALMINE STRUCTURE AND USE THEREOF” (Beijing Tide Pharmaceutical Co., Ltd., priority 2022, dated 2024)
